Target: T1, glutathione S-transferase (GST)-linked full-length human Syk protein (Homo sapiens, UniProt P43405)
T1 construct: glutathione S-transferase (GST)-linked full-length human Syk protein; purchased Carna Biosciences; host or cells: Baculovirus expression system
Assay: Syk enzyme assay
Format: biochemical
Details: 0.83 nM Syk, time-resolved fluorescence; read-out: IC50 of Syk-inhibitory activity
Method in brief: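 Phosphotyrosine on a biotin-peptide substrate (0.5 μM) was read by time-resolved fluorescence at 615 and 665 nm with Eu-anti-pTyr antibody and APC-streptavidin after 1 h EDTA stop.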

Row | Compound | IC50 [nM]
1 | CC[C@H](N)[C@H](Nc1nc(Nc2cnc(N3CCOCC3)c(F)c2)c(C(N)=O)cc1F)C1CC1 [Example 2-359, 6-(((1R,2S)-2-amino-1-cyclopropylbutyl)amino)-5-fluoro-2-((5-fluoro-6-morpholinopyridin-3-yl)amino)nicotinamide] | 50 to 100
2 | C[C@@H](Nc1nc(Nc2ccc3c(c2)c(N(C)C)nn3C)c(C(N)=O)cc1F)[C@@H](N)C1CC1 [Example 2-301, 6-(((1S,2R)-1-amino-1-cyclopropylpropan-2-yl)amino)-2-((3-(dimethylamino)-1-methyl-1H-indazol-5-yl)amino)-5-fluoronicotinamide] | 50 to 100
3 | C[C@H](N)[C@H](Nc1nc(Nc2ccc(F)c(F)c2)c(C(N)=O)cc1F)C1CC1 [Example 2-59, 6-(((1R,2S)-2-amino-1-cyclopropylpropyl)amino)-2-((3,4-difluorophenyl)amino)-5-fluoronicotinamide] | 10 to 50
4 | C[C@H](N)[C@H](Nc1nc(Nc2ccc(F)cc2)c(C(N)=O)cc1F)C1CCC1 [Example 2-60, 6-(((1R,2S)-2-amino-1-cyclobutylpropyl)amino)-5-fluoro-2-((4-fluorophenyl)amino)nicotinamide] | 10 to 50
5 | CCC[C@@H](Nc1nc(Nc2cnc(NC)c(F)c2)c(C(N)=O)cc1F)[C@H](C)N [Example 2-277, 6-(((2S,3R)-2-aminohexan-3-yl)amino)-5-fluoro-2-((5-fluoro-6-(methylamino)pyridin-3-yl)amino)nicotinamide] | 10 to 50
6 | CNc1n[nH]c2ccc(Nc3nc(N[C@H](C4CC4)[C@H](C)N)c(F)cc3C(N)=O)cc12 [Example 2-490, 6-(((1R,2S)-2-amino-1-cyclopropylpropyl)amino)-5-fluoro-2-((3-(methylamino)-1H-indazol-5-yl)amino)nicotinamide] | 10 to 50
7 | CCOc1ncc(Nc2nc(N[C@H](C3CC3)[C@H](C)N)c(F)cc2C(N)=O)cc1-n1cccn1 [Example 2-164] | 10 to 50
8 | Cc1ncc(Nc2nc(N[C@H](c3cccc(F)c3)[C@H](C)N)c(F)cc2C(N)=O)cc1-n1nccn1 [Example 2-412, 6-(((1R,2S)-2-amino-1-(3-fluorophenyl)propyl)amino)-5-fluoro-2-((6-methyl-5-(2H-1,2,3-triazol-2-yl)pyridin-3-yl)amino)nicotinamide] | 10 to 50
9 | CC[C@H](N)[C@H](Nc1nc(Nc2cnc(C)c(F)c2)c(C(N)=O)cc1F)C1CC1 [Example 2-382, 6-(((1R,2S)-2-amino-1-cyclopropylbutyl)amino)-5-fluoro-2-((5-fluoro-6-methylpyridin-3-yl)amino)nicotinamide] | 10 to 50
10 | COc1ncc(Nc2nc(N[C@H](C3CC3)[C@H](C)N)c(F)cc2C(N)=O)c2cnn(C)c12 [Example 2-408, 6-(((1R,2S)-2-amino-1-cyclopropylpropyl)amino)-5-fluoro-2-((7-methoxy-1-methyl-1H-pyrazolo[3,4-c]pyridin-4-yl)amino)nicotinamide] | 50 to 100
11 | COCCn1ncc2c(Nc3nc(N[C@@H]4CCOC[C@@H]4N)c(F)cc3C(N)=O)cncc21 [Example 2-385, 6-(((3R,4R)-3-aminotetrahydro-2H-pyran-4-yl)amino)-5-fluoro-2-((1-(2-methoxyethyl)-1H-pyrazolo[3,4-c]pyridin-4-yl)amino)nicotinamide] | 10 to 50
12 | CC(C)C[C@@H](Nc1nc(Nc2cnc(N3CCOCC3)c(F)c2)c(C(N)=O)cc1F)[C@H](C)N [Example 2-237, 6-(((2S,3R)-2-amino-5-methylhexan-3-yl)amino)-5-fluoro-2-((5-fluoro-6-morpholinopyridin-3-yl)amino)nicotinamide] | 10 to 50
13 | COc1ccc([C@@H](Nc2nc(Nc3cnc(OC)c(-n4ccnn4)c3)c(C(N)=O)cc2F)[C@H](C)N)cc1 [Example 2-339, 6-(((1R,2S)-2-amino-1-(4-methoxyphenyl)propyl)amino)-5-fluoro-2-((6-methoxy-5-(1H-1,2,3-triazol-1-yl)pyridin-3-yl)amino)nicotinamide] | 50 to 100
14 | CC[C@H](N)[C@@H](C)Nc1nc(Nc2cnc3c(c2)c(OC)nn3C)c(C(N)=O)cc1F [Example 2-257, 6-(((2R,3S)-3-aminopentan-2-yl)amino)-5-fluoro-2-((3-methoxy-1-methyl-1H-pyrazolo[3,4-b]pyridin-5-yl)amino)nicotinamide] | 50 to 100
15 | CCCC[C@@H](Nc1nc(Nc2cnc(N3CCOCC3)c(F)c2)c(C(N)=O)cc1F)[C@H](C)N [Example 2-262, 6-(((2S,3R)-2-aminoheptan-3-yl)amino)-5-fluoro-2-((5-fluoro-6-morpholinopyridin-3-yl)amino)nicotinamide] | 10 to 50
16 | CC[C@@H](Nc1nc(Nc2cnc(N3CCOCC3)c(F)c2)c(C(N)=O)cc1F)[C@H](C)N [Example 2-259, 6-(((2S,3R)-2-aminopentan-3-yl)amino)-5-fluoro-2-((5-fluoro-6-morpholinopyridin-3-yl)amino)nicotinamide] | 50 to 100
17 | Cc1ncc(Nc2nc(N[C@@H]3CC[C@@H](OCc4ccccc4)C[C@@H]3N)c(F)cc2C(N)=O)cc1-n1nccn1 (racemic) [Example 2-528, Mixture of 6-((2-amino-4-(benzyloxy)cyclohexyl)amino)-5-fluoro-2-((6-methyl-5-(2H-1,2,3-triazol-2-yl)pyridin-3-yl)amino)nicotinamide (1R,2S,4R), (1S,2R,4S)] | 50 to 100
18 | CCOC[C@@H](Nc1nc(Nc2cnc(C)c(-n3nccn3)c2)c(C(N)=O)cc1F)[C@H](C)N [Example 2-183, 6-(((2S,3S)-3-amino-1-ethoxybutan-2-yl)amino)-5-fluoro-2-((6-methyl-5-(2H-1,2,3-triazol-2-yl)pyridin-3-yl)amino)nicotinamide] | 50 to 100
19 | C[C@H](N)[C@H](Nc1nc(Nc2ccc3c(c2)c(N2CCCC2)nn3C)c(C(N)=O)cc1F)C1CC1 [Example 2-430, 6-(((1R,2S)-2-amino-1-cyclopropylpropyl)amino)-5-fluoro-2-((1-methyl-3-(pyrrolidin-1-yl)-1H-indazol-5-yl)amino)nicotinamide] | 10 to 50
20 | CC[C@H](N)[C@@H](C)Nc1nc(Nc2cnc(C)c(C)c2)c(C(N)=O)cc1F [Example 2-35, 6-(((2R,3S)-3-aminopentan-2-yl)amino)-2-((5,6-dimethylpyridin-3-yl)amino)-5-fluoronicotinamide] | 10 to 50

Other lines, results leading:

Row | IC50 [nM] | Compound
21 | 10 to 50 | COc1cc(Nc2nc(N[C@H](c3ccccc3)[C@H](C)N)c(F)cc2C(N)=O)cc(OC)n1 [Example 2-356, 6-(((1R,2S)-2-amino-1-phenylpropyl)amino)-2-((2,6-dimethoxypyridin-4-yl)amino)-5-fluoronicotinamide]
22 | 10 to 50 | CC[C@H](N)[C@@H](C)Nc1nc(Nc2cnc(OC)c(-n3nccn3)c2)c(C(N)=O)cc1F [Example 2-279, 6-(((2R,3S)-3-aminopentan-2-yl)amino)-5-fluoro-2-((6-methoxy-5-(2H-1,2,3-triazol-2-yl)pyridin-3-yl)amino)nicotinamide]
23 | 10 to 50 | CC[C@@H](Nc1nc(Nc2cnc(NC)c(F)c2)c(C(N)=O)cc1F)[C@H](C)N [Example 2-276, 6-(((2S,3R)-2-aminopentan-3-yl)amino)-5-fluoro-2-((5-fluoro-6-(methylamino)pyridin-3-yl)amino)nicotinamide]
24 | < 10 | Cc1cnn(-c2cncc(Nc3nc(N[C@H](C4CC4)[C@H](C)N)c(F)cc3C(N)=O)c2)n1 [Example 2-532, 6-(((1R,2S)-2-amino-1-cyclopropylpropyl)amino)-5-fluoro-2-((5-(4-methyl-2H-1,2,3-triazol-2-yl)pyridin-3-yl)amino)nicotinamide]
25 | < 10 | CCOc1ncc(Nc2nc(N[C@H](CC(C)C)[C@H](C)N)c(F)cc2C(N)=O)cc1-n1ccnn1 [Example 2-199, 6-(((2S,3R)-2-amino-5-methylhexan-3-yl)amino)-2-((6-ethoxy-5-(1H-1,2,3-triazol-1-yl)pyridin-3-yl)amino)-5-fluoronicotinamide]
26 | < 10 | C[C@H](N)[C@H](Nc1nc(Nc2cnc(N3CCOCC3)c(F)c2)c(C(N)=O)cc1F)c1ccccc1 [Example 2-314, 6-(((1R,2S)-2-amino-1-phenylpropyl)amino)-5-fluoro-2-((5-fluoro-6-morpholinopyridin-3-yl)amino)nicotinamide]
27 | < 10 | CC(C)C[C@@H](Nc1nc(Nc2cccc3c2cnn3C)c(C(N)=O)cc1F)[C@H](C)N [Example 2-12, 6-(((2S,3R)-2-amino-5-methylhexan-3-yl)amino)-5-fluoro-2-((1-methyl-1H-indazol-4-yl)amino)nicotinamide]
28 | < 10 | COCCn1ncc2c(Nc3nc(N[C@H](C4CC4)[C@H](C)N)c(F)cc3C(N)=O)cncc21 [Example 2-388, 6-(((1R,2S)-2-amino-1-cyclopropylpropyl)amino)-5-fluoro-2-((1-(2-methoxyethyl)-1H-pyrazolo[3,4-c]pyridin-4-yl)amino)nicotinamide]
29 | < 10 | CCn1ncc2cc(Nc3nc(N[C@H](c4ccc(OC)cc4)[C@H](C)N)c(F)cc3C(N)=O)ccc21 [Example 2-341, 6-(((1R,2S)-2-amino-1-(4-methoxyphenyl)propyl)amino)-2-((1-ethyl-1H-indazol-5-yl)amino)-5-fluoronicotinamide]
30 | < 10 | CCC[C@@H](Nc1nc(Nc2ccc3c(c2)c(OC(F)F)nn3CCOC)c(C(N)=O)cc1F)[C@H](C)N [Example 2-353, 6-(((2S,3R)-2-aminohexan-3-yl)amino)-2-((3-(difluoromethoxy)-1-(2-methoxyethyl)-1H-indazol-5-yl)amino)-5-fluoronicotinamide]
31 | < 10 | CCCC[C@@H](Nc1nc(Nc2cc(F)c3c(c2)c(N(C)C)nn3C)c(C(N)=O)cc1F)[C@H](C)N [Example 2-189, 6-(((2S,3R)-2-aminoheptan-3-yl)amino)-2-((3-(dimethylamino)-7-fluoro-1-methyl-1H-indazol-5-yl)amino)-5-fluoronicotinamide]

— US9051310B2, “Nicotinamide derivative or salt thereof” (FUJIFILM Corporation, priority 2011, dated 2015)
